Experiment [1] has as its system Aspergillus fumigatus. Kind of experiment: Fungicidal activity against Aspergillus fumigatus ATCC 90906 assessed as fungal growth inhibition incubated for 72 hrs by alamar blue assay. It is filed as functional. The settings on record: Aspergillus fumigatus, ATCC 90906, 72 h, read-out: MFC.
The subject of experiment [2] is Nakaseomyces glabratus. Kind of experiment: Antifungal activity against Candida glabrata ATCC 90030 assessed as fungal growth inhibition incubated for 18 to 24 hrs by alamar blue assay. It is filed as functional. The settings on record: Nakaseomyces glabratus, ATCC 90030, time 18-24 hrs; read-out: MIC.
The test system of experiment [3] is Pichia kudriavzevii. Kind of experiment: Fungicidal activity against Candida krusei ATCC 6258 assessed as fungal growth inhibition incubated for 18 to 24 hrs by alamar blue assay. As to conditions: Pichia kudriavzevii, ATCC 6258, time 18-24 hrs; read-out: MFC. In kind it is functional.
Experiment [4] deals with Vero. Kind of experiment: Cytotoxicity against African green monkey Vero cells assessed as reduction in cell viability incubated for 48 hrs by neutral red dye based assay. Details: species or system Chlorocebus sabaeus. As to conditions: Chlorocebus sabaeus, Vero, 48 h.
In experiment [5] the test system is Aspergillus fumigatus. Kind of experiment: Antifungal activity against Aspergillus fumigatus ATCC 90906 assessed as fungal growth inhibition incubated for 72 hrs by alamar blue assay. It is filed as functional. As to conditions: Aspergillus fumigatus, ATCC 90906, 72 h, read-out: MIC.
For experiment [6], the system named is Candida albicans. Kind of experiment: Fungicidal activity against Candida albicans ATCC 90028 assessed as fungal growth inhibition incubated for 18 to 24 hrs by alamar blue assay. It is filed as functional. The settings on record: Candida albicans, ATCC 90028, time 18-24 hrs; read-out: MFC.
The test system of experiment [7] is Pichia kudriavzevii. Kind of experiment: Antifungal activity against Candida krusei ATCC 6258 assessed as fungal growth inhibition incubated for 18 to 24 hrs by alamar blue assay. In kind it is functional. The settings on record: Pichia kudriavzevii, ATCC 6258, time 18-24 hrs; read-out: MIC.
Experiment [8] deals with Cryptococcus neoformans. Kind of experiment: Antifungal activity against Cryptococcus neoformans ATCC 90113 assessed as fungal growth inhibition incubated for 72 hrs by alamar blue assay. In kind it is functional. As to conditions: Cryptococcus neoformans, ATCC 90113, 72 h, read-out: MIC.
Experiment [9] deals with Candida albicans. Kind of experiment: Antifungal activity against Candida albicans ATCC 90028 assessed as fungal growth inhibition incubated for 18 to 24 hrs by alamar blue assay. In kind it is functional. As to conditions: Candida albicans, ATCC 90028, time 18-24 hrs; read-out: MIC.
The test system of experiment [10] is Nakaseomyces glabratus. Kind of experiment: Fungicidal activity against Candida glabrata ATCC 90030 assessed as fungal growth inhibition incubated for 18 to 24 hrs by alamar blue assay. In kind it is functional. The settings on record: Nakaseomyces glabratus, ATCC 90030, time 18-24 hrs; read-out: MFC.
Experiment [11] has as its system Cryptococcus neoformans. Kind of experiment: Fungicidal activity against Cryptococcus neoformans ATCC 90113 assessed as fungal growth inhibition incubated for 72 hrs by alamar blue assay. It is filed as functional. As to conditions: Cryptococcus neoformans, ATCC 90113, 72 h, read-out: MFC.

Turning to `CCCCCCCCCCCCCCC1(O)C(C)=C(C)C2=[N+](CC(=O)NCCCN)CCCN21` (stereo not given), the MFC in [1] came to 30 µM; in experiment [3], 12 µM; in experiment [6], 18 µM; in experiment [10] it was 15 µM; in experiment [11], 3.8 µM. For the same molecule, the minimal inhibitory concentration (MIC) is 12 µM in [2]; 20 µM in [5]; 7.5 µM in [7]; 3.8 µM in [8]; 12 µM in experiment [9]. In addition, the concentration for half-maximal inhibition (IC50) in experiment [4] is above 45 µM.
In the case of `CCCCCCCCCCCCCCC1(O)C(C)=C(C)C2=[N+](Cc3cc(OC)c(OC)c(OC)c3)CCCN21` (stereo not given), the MFC in experiment [1] was 4 µM; in experiment [3], 1.9 µM; in [6] it was 5.3 µM; in experiment [10] it was 4 µM; in experiment [11] it was 1.6 µM. The MIC worked out at 4 µM in experiment [2]; 4 µM in experiment [5]; 1.9 µM in [7]; 1.6 µM in experiment [8]; 5.3 µM in [9]. Besides, in [4], the half-inhibitory concentration (IC50) was above 40 µM.
On to `CCCCCCCCCCCCCCC1(O)C(C)=C(C)C2=[N+](C/C=C/c3ccccc3)CCCN21` (stereo not given), for which the MFC was found to be 5.9 µM in [1]; 3.8 µM in experiment [3]; 3.8 µM in [6]; 4.1 µM in experiment [10]; 4.1 µM in experiment [11]. The minimal inhibitory concentration (MIC) in [2] was found to be 2.7 µM; in experiment [5] it was 4.5 µM; in experiment [7], 3 µM; in experiment [8], 1.4 µM; in [9], 3.8 µM. In addition, the 50% inhibitory concentration (IC50) in [4] came to 38 µM.
Regarding `CCCCCCCCCCCCCCC1(O)C(C)=C(C)C2=[N+](CC(=O)NCCCNC(=O)OC(C)(C)C)CCCN21` (stereo not given), the minimum fungicidal concentration (MFC) in [1] turned out to be 15 µM; in experiment [3] it was 5 µM; in [6], 14 µM; in experiment [10], 14 µM; in experiment [11], 3.8 µM. Also, the minimum inhibitory concentration (MIC) in experiment [2] came to 7.6 µM; in experiment [5], 10 µM; in experiment [7], 5 µM; in [8], 3.8 µM; in experiment [9], 14 µM. In addition, the IC50 in experiment [4] was above 38 µM.
Turning to `CCCCCCCCCCCCCCC1(O)C(C)=C(C)C2=[N+](CC(=O)c3cccs3)CCCN21` (stereo not given), the MFC in [1] turned out to be 8.8 µM; in [3], 5.1 µM; in experiment [6], 7.4 µM; in experiment [10], 5.1 µM; in experiment [11] it was 12 µM. Also, the minimal inhibitory concentration (MIC) in [2] was 5.1 µM; in [5], 8.8 µM; in [7], 5.1 µM; in experiment [8], 12 µM; in experiment [9], 7.4 µM. Also, the IC50 in experiment [4] was determined as 27 µM.
